Where two headings read alike, the source gives them in different places.

The subject of assay [1] is IFNγ induced CXCL10 secretion in EpiAirway tissue cultures. Put plainly: Assay 15: IFNγ induced CXCL10 in human 3D airway cultures. The conditions noted are these: 192 h, Day 8, average from 3 or 4 donors, read-out: % inhibition of IFNγ induced CXCL10 secretion (±STDV). Type of assay: cell-based. The procedure: EpiAirway tissue cultures were obtained from Mattek (AIR-100). Cultures were derived from asthmatic donors. In a cell culture insert, human derived tracheal/bronchial epithelial cells were grown and differentiated on a porous membrane support, allowing an air-liquid interface with warmed culture medium below the cells and a gaseous test atmosphere above. Tissues were cultured in maintenance media (Mattek, AIR-100-MM) in a 37° C., 5% CO2 humidified incubator. Four donors were tested. On Day 0, tissue cultures were treated with test compounds at 10 μM, 1 μM and/or 0.1 μM. Compounds were diluted in dimethyl sulfoxide (DMSO, Sigma) to a final concentration of 0.1%. DMSO at 0.1% was used as a vehicle control. Test compounds were incubated with cultures for 1 hour at 37° C., 5% CO2, followed by the addition of pre-warmed media containing IFNγ (R&D Systems) or IL-27 (R&D Systems) at a final concentration at 100 ng/ml. Tissue cultures were maintained for 8 days. Media was replaced every 2 days with fresh media containing compounds and IFNγ or IL-27. On Day 8, tissue cultures and supernatants were collected for analysis. […] Data is expressed as % Inhibition +/−standard deviation (±STDV). Percent inhibition was determined by compound inhibitory potency against IFNγ or IL-27 induced CXCL10 or CXCL9 secretion compared to vehicle treated cells. […]

The subject of assay [2] is IL-2, IL-4, IL-6, and IFNγ signaling. Put plainly: Cellular assays of Assays 3 to 7 (summary statement). Type of assay: cell-based. The conditions noted are these: Homo sapiens, summary over cellular Assays 3 to 7.
For a further assay, the target named is T1, Tyk2 (Homo sapiens, UniProt P29597).
T1 construct: GST; purchased Life Technologies
Nature of the assay: Assay 1: LanthaScreen biochemical JAK kinase assay, Tyk2. The conditions noted are these: converted from pIC50 by Cheng-Prusoff; ATP at Km 10 μM; read-out: Tyk2 pKi (converted). Here is the method:
A panel of four LanthaScreen JAK biochemical assays (JAK1, 2, 3 and Tyk2) were carried in a common kinase reaction buffer (50 mM HEPES, pH 7.5, 0.01% Brij-35, 10 mM MgCl2, and 1 mM EGTA). Recombinant GST-tagged JAK enzymes and a GFP-tagged STAT1 peptide substrate were obtained from Life Technologies.
The serially diluted compound was pre-incubated with each of the four JAK enzymes and the substrate in white 384-well microplates (Corning) at ambient temperature for lh. ATP was subsequently added to initiate the kinase reactions in 10 μL total volume, with 1% DMSO. […] The plates were allowed to incubate at ambient temperature for lh before being read on the EnVision reader (Perkin Elmer). Emission ratio signals (520 nm/495 nm) were recorded and utilized to calculate the percent inhibition values based on DMSO and background controls.
For dose-response analysis, percent inhibition data were plotted vs. compound concentrations, and IC50 values were determined from a 4-parameter robust fit model with the Prism software (GraphPad Software). Results were expressed as pIC50 (negative logarithm of IC50) and subsequently converted to pK1 (negative logarithm of dissociation constant, Ki) using the Cheng-Prusoff equation.
For orientation: Time-resolved FRET reads energy transfer from a long-lived donor to a nearby acceptor.

Assay [3] relates to IL-2 stimulated pSTAT5 in CD4+ T cells. Nature of the assay: Assay 4: Inhibition of IL-2 stimulated pSTAT5 in CD4+ T cells. It is filed as cell-based. Conditions: CD4+ T cells in human PBMCs, flow cytometry; read-out: pIC50, inhibition of IL-2 stimulated pSTAT5 (converted). The procedure: The potency of the test compound for inhibition of interleukin-2 (IL-2)/anti-CD3 stimulated STATS phosphorylation was measured in CD4-positive (CD4+) T cells in human peripheral blood mononuclear cells (PBMCs) isolated from human whole blood (Stanford Blood Center) using flow cytometry. Because IL-2 signals through JAK, this assay provides a measure of JAK cellular potency.
CD4+T cells were identified using a […] (PE) conjugated anti-CD4 antibody (Clone RPA-T4, BD Biosciences), while an Alexa Fluor 647 conjugated anti-pSTAT5 antibody (pY694, Clone 47, BD Biosciences) was used to detect STATS phosphorylation.
(1) The protocol of Assay 3 paragraph (1) was followed with the exception that the cytokine stimulation with anti-CD3 was performed for 30 min instead of 24 h. […] After incubation, cells were washed twice in FACS buffer before being analyzed using a LSRII flow cytometer (BD Biosciences). To determine the inhibitory potency of the test compound in response to IL-^2/anti-CD3, the median fluorescent intensity (MFI) of pSTAT5 was measured in CD4+ T cells. IC50 values were determined from analysis of the inhibition curves of MFI vs compound concentration. Data are expressed as pIC50 (negative decadic logarithm IC50) values.

Assay [4] has as its system IL-27 induced CXCL10 secretion in EpiAirway tissue cultures. Put plainly: Assay 15: IL-27 induced CXCL10 in human 3D airway cultures. Type of assay: cell-based. The conditions noted are these: 192 h, Day 8, average from 3 or 4 donors, read-out: % inhibition of IL-27 induced CXCL10 secretion (±STDV). The procedure:
EpiAirway tissue cultures were obtained from Mattek (AIR-100). Cultures were derived from asthmatic donors. In a cell culture insert, human derived tracheal/bronchial epithelial cells were grown and differentiated on a porous membrane support, allowing an air-liquid interface with warmed culture medium below the cells and a gaseous test atmosphere above. Tissues were cultured in maintenance media (Mattek, AIR-100-MM) in a 37° C., 5% CO2 humidified incubator. Four donors were tested. On Day 0, tissue cultures were treated with test compounds at 10 μM, 1 μM and/or 0.1 μM. Compounds were diluted in dimethyl sulfoxide (DMSO, Sigma) to a final concentration of 0.1%. DMSO at 0.1% was used as a vehicle control. Test compounds were incubated with cultures for 1 hour at 37° C., 5% CO2, followed by the addition of pre-warmed media containing IFNγ (R&D Systems) or IL-27 (R&D Systems) at a final concentration at 100 ng/ml. Tissue cultures were maintained for 8 days. Media was replaced every 2 days with fresh media containing compounds and IFNγ or IL-27. On Day 8, tissue cultures and supernatants were collected for analysis. Supernatant samples were assayed for CXCL10 (IP-10) and CXCL9 (MIG) using luminex analysis (EMD Millipore). Data is expressed as % Inhibition +/−standard deviation (±STDV). Percent inhibition was determined by compound inhibitory potency against IFNγ or IL-27 induced CXCL10 or CXCL9 secretion compared to vehicle treated cells. Data is the average from 3 or 4 donors. Compound 1 was able to inhibit IFNγ induced CXCL10 secretion by 99%±2.0 (at 10 μM), 71%±19 (at […]) and 17%±12 (at 0.1 μM) when compared to vehicle control. Compound 1 was able to inhibit IFNγ induced CXCL9 secretion by 100%±0.3 (at 10 μM), 99%±0.9 (at 1 μM) and 74%±17 (at 0.1 μM) when compared to vehicle. […] Compound 1 was able to inhibit IL-27 induced CXCL9 secretion by 100%±0 (at 10 μM), 95%±3.7 (at 1 μM) and 75%±3.5 (at 0.1 μM) when compared to vehicle control.

T1 sequence (P29597 whole entry): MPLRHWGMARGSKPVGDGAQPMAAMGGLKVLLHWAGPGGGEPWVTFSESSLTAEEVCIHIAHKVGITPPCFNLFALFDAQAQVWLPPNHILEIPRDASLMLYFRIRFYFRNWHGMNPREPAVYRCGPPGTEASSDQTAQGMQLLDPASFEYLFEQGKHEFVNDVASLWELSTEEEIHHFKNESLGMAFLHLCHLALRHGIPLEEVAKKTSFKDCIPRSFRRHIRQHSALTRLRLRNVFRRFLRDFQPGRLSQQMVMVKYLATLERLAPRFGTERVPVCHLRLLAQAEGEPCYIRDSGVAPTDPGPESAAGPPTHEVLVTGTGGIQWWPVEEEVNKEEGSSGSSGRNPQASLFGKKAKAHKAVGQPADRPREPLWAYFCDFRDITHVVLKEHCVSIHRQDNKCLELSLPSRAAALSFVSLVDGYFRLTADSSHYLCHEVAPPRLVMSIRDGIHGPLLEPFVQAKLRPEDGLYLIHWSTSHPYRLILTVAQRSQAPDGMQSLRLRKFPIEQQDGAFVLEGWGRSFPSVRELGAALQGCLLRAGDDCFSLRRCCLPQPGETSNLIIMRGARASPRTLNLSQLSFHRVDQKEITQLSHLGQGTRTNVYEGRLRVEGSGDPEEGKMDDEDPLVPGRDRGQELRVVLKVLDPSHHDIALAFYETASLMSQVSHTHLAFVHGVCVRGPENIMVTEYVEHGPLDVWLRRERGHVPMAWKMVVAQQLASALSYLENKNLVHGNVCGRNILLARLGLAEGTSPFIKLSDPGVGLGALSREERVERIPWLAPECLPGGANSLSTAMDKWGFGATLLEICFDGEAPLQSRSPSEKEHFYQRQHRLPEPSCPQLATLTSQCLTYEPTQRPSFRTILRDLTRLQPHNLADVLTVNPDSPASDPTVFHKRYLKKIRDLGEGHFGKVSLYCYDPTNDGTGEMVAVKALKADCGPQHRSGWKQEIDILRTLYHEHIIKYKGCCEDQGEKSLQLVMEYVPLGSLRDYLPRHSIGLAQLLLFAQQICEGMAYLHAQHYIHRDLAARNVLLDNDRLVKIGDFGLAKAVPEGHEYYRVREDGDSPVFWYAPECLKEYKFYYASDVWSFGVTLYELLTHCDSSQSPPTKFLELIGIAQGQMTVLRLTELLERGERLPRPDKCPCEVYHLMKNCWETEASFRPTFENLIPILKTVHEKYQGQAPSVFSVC

On to `CCc1cc(O)c(F)cc1-c1ccc2c(-c3nc4c([nH]3)CCN(C3CCN(C)CC3)C4)n[nH]c2c1` [Compound 1, 5-ethyl-2-fluoro-4-(3-(5-(1-methylpiperidin-4-yl)-4,5,6,7-tetrahydro-1H-imidazo[4,5-c]pyridin-2-yl)-1H-indazol-6-yl)phenol], for which the figures for the inhibition at 0.1 µM in assay [1] (at 0.1 μM) and in assay [4] (at 0.1 μM) were 17% and 73%, respectively. Moreover, the inhibition (usually the change of the read-out against control, counted positive when it falls) at 10 µM worked out at 99% in assay [1] (at 10 μM) and 108% in assay [4] (at 10 μM). The IC50 was ≤ 200 nM in assay [2] (read-out: IC50 for inhibition of IL-2, IL-4, IL-6, and IFNγ signaling); ≤ 200 nM in assay [2] (read-out: pIC50 for inhibition of IL-2, IL-4, IL-6, and IFNγ signaling (converted)); ~20 nM in assay [3]. Moreover, on Tyk2, the Ki is 0.158 nM. For the same compound, the inhibition at 1 µM in assay [4] (at 1 μM) is 98%.

(Values after patent US10251874B2, “Crystalline forms of a JAK inhibitor compound” (THERAVANCE BIOPHARMA R&D IP, LLC, priority 2017, dated 2019).)
